Results: the NIST ThermoML archive (doi:10.1021/je049960h)

Assay: xn = mol fraction of the nth substance listed
Conditions: 101.3 kPa, Liquid; for viscosity: Capillary tube (Ostwald / Ubbelohde) method; for mass density: Pycnometric method; for thermal conductivity: Hot wire method

CC(O)CO (stereo unspecified) [1,2-propanediol] + O
Conditions	mass density [kg/m3]	thermal conductivity [W/m/K]	viscosity [mPa·s]
296.65 K, x1 = 0.25	1040	–	7.39
296.8 K, x1 = 0.75	1038	–	32.4
297.05 K, x1 = 0.5	1042	–	17.5
298.5 K, x1 = 0.75	–	0.212	–
298.9 K, x1 = 0.5	–	0.243	–
299.6 K, x1 = 0.25	–	0.322	–
313.05 K, x1 = 0.25	1028	–	3.9
313.05 K, x1 = 0.5	1029	–	8.47
313.05 K, x1 = 0.75	1026	–	14.4
322.1 K, x1 = 0.25	–	0.337	–
323.7 K, x1 = 0.75	–	0.214	–
324.2 K, x1 = 0.5	–	0.25	–
333.1 K, x1 = 0.25	1013	–	2.12
333.1 K, x1 = 0.5	1013	–	4.14
333.1 K, x1 = 0.75	1010	–	6.46
347.2 K, x1 = 0.25	–	0.348	–
348.2 K, x1 = 0.75	–	0.215	–
349.1 K, x1 = 0.5	–	0.254	–
353.05 K, x1 = 0.25	996.5	–	1.32
353.05 K, x1 = 0.5	996.8	–	–
353.05 K, x1 = 0.75	993.8	–	3.45
353.1 K, x1 = 0.5	–	–	2.36
363.3 K, x1 = 0.25	988	–	1.09
363.35 K, x1 = 0.75	985.1	–	2.66
363.4 K, x1 = 0.5	987.9	–	1.84
372.1 K, x1 = 0.25	–	0.353	–
372.1 K, x1 = 0.5	–	0.255	–
372.8 K, x1 = 0.75	–	0.215	–
373.45 K, x1 = 0.25	979.3	–	0.915
378.35 K, x1 = 0.75	971.6	–	1.87
381.55 K, x1 = 0.25	971.3	–	–
383.5 K, x1 = 0.5	970.3	–	1.22
384.15 K, x1 = 0.25	–	–	0.778
388.5 K, x1 = 0.75	963.2	–	1.52
390.55 K, x1 = 0.25	963.4	–	–
394.55 K, x1 = 0.25	–	–	0.657
395.75 K, x1 = 0.5	958.1	–	–
396 K, x1 = 0.75	–	0.214	–
396.4 K, x1 = 0.25	–	0.353	–
397.1 K, x1 = 0.5	–	0.255	–
398.3 K, x1 = 0.75	954.2	–	1.27
398.75 K, x1 = 0.5	–	–	0.952
407.45 K, x1 = 0.5	947.1	–	–
407.75 K, x1 = 0.25	947.5	–	–
408.15 K, x1 = 0.75	944.7	–	1.08
411.45 K, x1 = 0.5	–	–	0.793
411.75 K, x1 = 0.25	–	–	0.525
411.75 K, x1 = 0.75	940.7	–	–
420.2 K, x1 = 0.5	–	0.253	–
420.4 K, x1 = 0.25	–	0.347	–
420.8 K, x1 = 0.75	–	0.212	–
424.55 K, x1 = 0.25	930.2	–	–
424.95 K, x1 = 0.5	929.6	–	–
428.15 K, x1 = 0.75	924.7	–	–
428.95 K, x1 = 0.5	–	–	0.618
429.55 K, x1 = 0.25	–	–	0.426
439.95 K, x1 = 0.5	914.7	–	–
440.4 K, x1 = 0.25	–	0.338	–
440.8 K, x1 = 0.5	–	0.249	–
441.45 K, x1 = 0.75	912.7	–	–
442 K, x1 = 0.75	–	0.21	–
443.95 K, x1 = 0.5	–	–	0.517
444.55 K, x1 = 0.25	908.3	–	–
449.55 K, x1 = 0.25	–	–	0.344

CC(O)COC(C)COC(C)CO (stereo unspecified) [2-[2-(2-hydroxypropoxy)propoxy]-1-propanol] + O
Conditions	mass density [kg/m3]	thermal conductivity [W/m/K]	viscosity [mPa·s]
294.8 K, x1 = 0.5	1028	–	66.6
295.35 K, x1 = 0.75	1021	–	71.2
295.4 K, x1 = 0.25	1037	–	36.7
297.3 K, x1 = 0.25	–	0.215	–
297.7 K, x1 = 0.75	–	0.157	–
298.1 K, x1 = 0.5	–	0.174	–
313.05 K, x1 = 0.25	1023	–	14.2
313.05 K, x1 = 0.5	1013	–	22.4
313.05 K, x1 = 0.75	1007	–	24.6
324.3 K, x1 = 0.25	–	0.22	–
325.2 K, x1 = 0.75	–	0.156	–
325.8 K, x1 = 0.5	–	0.174	–
333.05 K, x1 = 0.25	1006	–	6.27
333.1 K, x1 = 0.5	996.8	–	9.12
333.1 K, x1 = 0.75	990.4	–	9.92
349.1 K, x1 = 0.75	–	0.156	–
349.7 K, x1 = 0.25	–	0.223	–
350.2 K, x1 = 0.5	–	0.175	–
353.05 K, x1 = 0.25	989	–	3.36
353.05 K, x1 = 0.5	979.9	–	4.5
353.1 K, x1 = 0.75	973.7	–	4.93
368.25 K, x1 = 0.25	975.3	–	2.3
368.25 K, x1 = 0.5	966.8	–	2.96
368.25 K, x1 = 0.75	960.5	–	3.21
374.1 K, x1 = 0.25	–	0.224	–
375.1 K, x1 = 0.5	–	0.172	–
375.5 K, x1 = 0.75	–	0.155	–
378.15 K, x1 = 0.25	966.7	–	1.84
378.5 K, x1 = 0.5	957.4	–	2.32
378.55 K, x1 = 0.75	951.3	–	2.53
388.4 K, x1 = 0.5	947.8	–	1.88
388.4 K, x1 = 0.75	942.4	–	2.03
393.05 K, x1 = 0.25	953	–	–
394.05 K, x1 = 0.5	944	–	–
394.55 K, x1 = 0.25	–	–	1.35
395.15 K, x1 = 0.5	–	–	1.67
398.35 K, x1 = 0.75	933.3	–	1.66
398.9 K, x1 = 0.25	–	0.222	–
399 K, x1 = 0.5	–	0.172	–
399.4 K, x1 = 0.75	–	0.152	–
408.3 K, x1 = 0.75	924.3	–	1.44
408.65 K, x1 = 0.5	930.6	–	–
409.05 K, x1 = 0.25	936.6	–	–
411.65 K, x1 = 0.5	–	–	1.26
412.05 K, x1 = 0.25	–	–	1.01
412.45 K, x1 = 0.75	–	–	1.31
414.15 K, x1 = 0.75	918.6	–	–
422.5 K, x1 = 0.75	–	0.15	–
423 K, x1 = 0.25	–	0.22	–
424.5 K, x1 = 0.5	–	0.168	–
426.65 K, x1 = 0.25	918.9	–	–
426.75 K, x1 = 0.5	913.2	–	–
428.25 K, x1 = 0.75	–	–	1.02
429.25 K, x1 = 0.75	904.7	–	–
429.65 K, x1 = 0.25	–	–	0.785
429.75 K, x1 = 0.5	–	–	0.952
445 K, x1 = 0.75	889.5	–	–
446.15 K, x1 = 0.25	897.8	–	–
446.55 K, x1 = 0.75	–	–	0.791
446.85 K, x1 = 0.5	892.5	–	–
448.2 K, x1 = 0.25	–	0.213	–
448.3 K, x1 = 0.5	–	0.164	–
449 K, x1 = 0.75	–	0.144	–
449.15 K, x1 = 0.25	–	–	0.615
449.85 K, x1 = 0.5	–	–	0.738
